This passage reports binding rate and IC50 results from patent US12673041B2, “4-aminobut-2-enamide derivatives and salt thereof” (TAIHO PHARMACEUTICAL CO., LTD., priority 2019, dated 2026).

Where two headings read alike, the source gives them in different places.

Assay [1] has as its target Gppcp-bound recombinant K-Ras4B G12C mutant protein (amino acids 1-169, C51S/C80L/C118S) (Homo sapiens, UniProt P01116, C118S/C51S/C80L/G12C). Briefly: KRASG12C binding assay (LC-MS compound binding rate). The following applies: test compound final concentration 0.5 μM, 25° C., 1 hour. In a few lines:
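Gppcp-bound K-Ras4B G12C (aa 1-169, C51S/C80L/C118S) at 50 nM in 1×TBS, 0.1 mM TCEP, 0.25 mM MgCl2, 50 μM Gppcp was incubated 1 hour at 25° C with compound at 0.5 μM final. Intact-protein LC-MS gave binding rate as single-adduct signal over total KRAS signal, graded A (≥80%) to E (<20%).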

Assay [2] deals with T1, GMPPNP-bound KRAS G12C protein and cRAF RAS-binding domain (cRAF-RBD) (Homo sapiens, UniProt P01116, G12C).
T1 construct: made in house; host or cells: E. coli
Nature of the assay: Inhibitory activity on interaction between KRAS G12C and cRAF (Alpha technology). Type of assay: biochemical. The following applies: then cRAF-RBD, Alpha signal. In a few lines: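 GMPPNP-loaded His-KRAS G12C (aa 1-169) preincubated 1 h at 25 °C with compound (pH 7.5 Tris, 1 mM MgCl2, TCEP, Tween 20), then cRAF-RBD (aa 50-132) and Alpha reagents added for 1.5 h at RT. Inhibition scaled between DMSO (0%) and GDP-bound KRAS (100%); IC50 by curve fitting.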

The test system of assay [3] is MIA PaCa-2 cells. Briefly: Growth inhibition activity on KRAS-G12C mutant cell line (MIA PaCa-2). The format is cell-based. Particulars: Homo sapiens, 72 h; MIA PaCa-2, 3-day culture, CellTiter-Glo 3D. The procedure: MIA PaCa-2 cells (given by Sumitomo Dainippon Pharma Co., Ltd.), which are a KRAS-G12C mutant human pancreas cancer cell line, were suspended in a 10% fetal bovine serum-containing RPMI1640 medium (manufactured by Fujifilm Wako Pure Chemical Corporation.). The cell suspension was seeded into each well of a 384-well U bottom microplate and cultured in an incubator containing 5% CO2 gas at 37° C. for 1 day. The compounds obtained in the “Preparation of Compounds” section were used as test compounds and were dissolved in DMSO, respectively, and each test compound was diluted with DMSO to give a concentration 500 times the final concentration. The resultant solution of the test compound in DMSO was diluted with the medium used for suspending cells and added to each well of the cell-culture plate to give a DMSO final concentration of 0.2%, followed by culture in an incubator containing 5% CO2 gas at 37° C. for another 3 days. The cell count after 3-day culture in the presence of the test compound was measured using CellTiter-Glo 3D Reagent (manufactured by Promega Corporation). All wells were added with CellTiter-Glo 3D Reagent and mixed for 10 minutes. 30 minutes after mixing, luminescence was measured by a plate reader. The growth inhibition rate was calculated from the following equation, and the concentration of the test compound at which 50% inhibition was achieved (IC50 (nM)) was determined. […] Growth Inhibition Rate (%)=(C−T)/(C)×100 • T: the emission intensity in a well into which a test compound was added. • C: the emission intensity in a well into which a test compound was not added.

[4] abbreviates: GMPPNP-bound KRAS G12C incubated with compound at 25° C. for 1 hour, read-out: IC50.

A word on the IC50: it is the concentration that inhibits the measured activity by half.

`CCc1nc2cc(-c3cccc4c3CCN4C(=O)c3ccc(NC(=O)/C=C/CNC4CCN(C(C)C)CC4)c(C#N)c3)c(C(F)(F)F)cc2n1C` [Example 30, (E)-N-(2-cyano-4-(4-(2-ethyl-1-methyl-6-(trifluoromethyl)-1H-benzo[d]imidazol-5-yl)indoline-1-carbonyl)phenyl)-4-((1-isopropylpiperidin-4-yl)amino)but-2-enamide]: the binding rate entry in assay [1] is reported as “A (A binding rate of 80% or more is rated “A”)”. The IC50 in assay [2] (setting [4]) came out at 75 nM; in assay [3], 370 nM.
Consider `CO[C@H]1CC[C@H](NC/C=C/C(=O)Nc2ccc(C(=O)c3ccc4c(-c5cc6nc7n(c6cc5C(F)(F)F)CCC7)cccn34)cc2C#N)CC1` [Example 31, (E)-N-(2-cyano-4-(8-(7-(trifluoromethyl)-2,3-dihydro-1H-benzo[d]pyrrolo[1,2-a]imidazol-6-yl)indolizine-3-carbonyl)phenyl)-4-(((1r,4r)-4-methoxycyclohexyl)amino)but-2-enamide], for which the binding rate entry in assay [1] is given as “A (A binding rate of 80% or more is rated “A”)”. The IC50 in assay [2] (setting [4]) came out at 26 nM; in assay [3], 86 nM.
Take `CCc1cc2c(cc1-c1cccc(NC(=O)c3ccc(NC(=O)/C=C/CN[C@H]4CC[C@H](OC)CC4)c(C#N)c3)c1)nc1n2CCC1` [Example 32, 3-cyano-N-(3-(7-ethyl-2,3-dihydro-1H-benzo[d]pyrrolo[1,2-a]imidazol-6-yl)phenyl)-4-((E)-4-(((1r,4r)-4-methoxycyclohexyl)amino)but-2-enamido)benzamide]: the binding rate result in assay [1] was “B (a binding rate of 60% or more and less than 80% is rated “B”)”. Besides, the IC50 in assay [2] (setting [4]) was found to be 27 nM; in assay [3] it was 310 nM.
Regarding `CCc1nc2cc(-c3cccn4c(C(=O)c5ccc(NC(=O)/C=C/CN[C@H]6CC[C@H](OC)CC6)c(C#N)c5)ccc34)c(C(F)(F)F)cc2n1C` [Example 33, (E)-N-(2-cyano-4-(8-(2-ethyl-1-methyl-6-(trifluoromethyl)-1H-benzo[d]imidazol-5-yl)indolizine-3-carbonyl)phenyl)-4-(((1r,4r)-4-methoxycyclohexyl)amino)but-2-enamide], in assay [1], the binding rate entry is recorded as “A (A binding rate of 80% or more is rated “A”)”. The IC50 in assay [2] (setting [4]) worked out at 45 nM; in assay [3], 48 nM.
In the same order, the values of `CO[C@H]1CC[C@H](NC/C=C/C(=O)Nc2ccc(C(=O)Nc3cccc(-c4cc5nc6n(c5cc4C(F)(F)F)CCC6)n3)cc2C#N)CC1` [Example 34, 3-cyano-4-((E)-4-(((1r,4r)-4-methoxycyclohexyl)amino)but-2-enamido)-N-(6-(7-(trifluoromethyl)-2,3-dihydro-1H-benzo[d]pyrrolo[1,2-a]imidazol-6-yl)pyridin-2-yl)benzamide] are “A (A binding rate of 80% or more is rated “A”)”, 31 nM and 92 nM.
For `CO[C@H]1CC[C@H](NC/C=C/C(=O)Nc2ccc(C(=O)c3c[nH]c4c(-c5cc6nc7n(c6cc5C(F)(F)F)CCC7)cccc34)cc2C#N)CC1` [Example 35, (E)-N-(2-cyano-4-(7-(7-(trifluoromethyl)-2,3-dihydro-1H-benzo[d]pyrrolo[1,2-a]imidazol-6-yl)-1H-indole-3-carbonyl)phenyl)-4-(((1r,4r)-4-methoxycyclohexyl)amino)but-2-enamide] the same measures were “A (A binding rate of 80% or more is rated “A”)”, 19 nM and 39 nM.
For `CO[C@H]1CC[C@H](NC/C=C/C(=O)Nc2ccc(C(=O)c3ccc4c(-c5cc6ncn(C)c6cc5C(F)F)cccn34)cc2C#N)CC1` [Example 36, (E)-N-(2-cyano-4-(8-(6-(difluoromethyl)-1-methyl-1H-benzo[d]imidazol-5-yl)indolizine-3-carbonyl)phenyl)-4-(((1r,4r)-4-methoxycyclohexyl)amino)but-2-enamide] the same measures were “A (A binding rate of 80% or more is rated “A”)”, 23 nM and 70 nM.
Consider `CCN(CC)[C@H]1CC[C@H](NC/C=C/C(=O)Nc2ccc(C(=O)Nc3cccc(-c4cc5nc6n(c5cc4C(F)(F)F)CCC6)n3)cc2C#N)CC1` [Example 37, 3-cyano-4-((E)-4-(((1r,4r)-4-(diethylamino)cyclohexyl)amino)but-2-enamido)-N-(6-(7-(trifluoromethyl)-2,3-dihydro-1H-benzo[d]pyrrolo[1,2-a]imidazol-6-yl)pyridin-2-yl)benzamide], for which, in assay [1], the binding rate entry was “A (A binding rate of 80% or more is rated “A”)”. Further, the values for the IC50 in assay [2] (setting [4]) and in assay [3] were 12 nM and 550 nM, respectively.
Take `CO[C@H]1CC[C@H](NC/C=C/C(=O)Nc2ccc(C(=O)c3cn(C)c4c(-c5cc6ncn(C)c6cc5C(F)(F)F)cccc34)cc2C#N)CC1` [Example 38, (E)-N-(2-cyano-4-(1-methyl-7-(1-methyl-6-(trifluoromethyl)-1H-benzo[d]imidazol-5-yl)-1H-indole-3-carbonyl)phenyl)-4-(((1r,4r)-4-methoxycyclohexyl)amino)but-2-enamide]: in assay [1], the binding rate entry is listed as “A (A binding rate of 80% or more is rated “A”)”. The IC50 worked out at 67 nM in assay [2] (IC50, GMPPNP-bound KRAS G12C incubated with compound at 25° C. for 1 hour) and 88 nM in assay [3].
Regarding `COc1cccc(Cl)c1-c1cccn2c(C(=O)c3ccc(NC(=O)/C=C/CN[C@H]4CC[C@H](OC)CC4)c(C#N)c3)ccc12` [Example 41, (E)-N-(4-(8-(2-chloro-6-methoxyphenyl)indolizine-3-carbonyl)-2-cyanophenyl)-4-(((1r,4r)-4-methoxycyclohexyl)amino)but-2-enamide], in assay [1], the binding rate result is “A (A binding rate of 80% or more is rated “A”)”. Moreover, the IC50 was 85 nM in assay [2] (setting [4]) and 370 nM in assay [3].
As for `Cn1cnc2cc(-c3cccn4c(C(=O)c5ccc(NC(=O)/C=C/[C@@H]6CCCN6)c(C#N)c5)ccc34)c(C(F)(F)F)cc21` [Example 44, (S,E)-N-(2-cyano-4-(8-(1-methyl-6-(trifluoromethyl)-1H-benzo[d]imidazol-5-yl)indolizine-3-carbonyl)phenyl)-3-(pyrrolidin-2-yl) acrylamide], the binding rate result in assay [1] is given as “A (A binding rate of 80% or more is rated “A”)”. Also, the IC50 in assay [2] (setting [4]) came to 61 nM; in assay [3], 350 nM.
In the same order, the values of `Cn1cnc2cc(-c3cccn4c(C(=O)c5cc(F)c(NC(=O)/C=C/CNC(C)(C)C)c(F)c5)ccc34)c(C(F)(F)F)cc21` [Example 49, (2E)-4-(tert-Butylamino)-N-(2,6-difluoro-4-{8-[1-methyl-6-(trifluoromethyl)-1H-1,3-benzodiazol-5-yl]indolizine-3-carbonyl}phenyl)but-2-enamide] are “A (A binding rate of 80% or more is rated “A”)”, 31 nM and 75 nM.
With `Cn1cnc2cc(-c3cccn4c(C(=O)c5ccc(NC(=O)/C=C/CNC(C)(C)C)c(F)c5)ccc34)c(C(F)(F)F)cc21` [Example 51, (2E)-4-(tert-Butylamino)-N-(2-fluoro-4-{8-[1-methyl-6-(trifluoromethyl)-1H-1,3-benzodiazol-5-yl]indolizine-3-carbonyl}phenyl)but-2-enamide], in assay [1], the binding rate entry is “B (a binding rate of 60% or more and less than 80% is rated “B”)”. The IC50 in assay [2] (setting [4]) was found to be 95 nM; in assay [3] it was 170 nM.
